A short description of data set [1]: Aqueous kinetic solubility at pH 7.4 by turbidimetric assay. Type of data set: physicochemical. Conditions: read-out: Kinetic_solubility.
The test system of the next data set is Plasmodium falciparum. As to the kind of experiment: microbe, parasite or virus in culture. Conditions: NF54.

≈ marks a conversion by molar mass, not a printed value.

Description for Plasmodium falciparum: Antiplasmodial activity against chloroquine-sensitive Plasmodium falciparum NF54 asexual erythrocyte stages by parasite lactate dehydrogenase assay

`CC(C)(C)c1cc(C(=O)Nc2nc(CN)cs2)n(Cc2ccccc2)n1`: the solubility kinetic in data set [1] is more than 200 µg/mL. Half-maximal inhibition in the data set with Plasmodium falciparum (IC50) required 0.0203 µM.

Regarding `Cc1ccc(-c2cc(C(=O)Nc3nc(CN)cs3)n(Cc3ccccc3)n2)cc1`, in data set [1], the solubility kinetic was 40 µg/mL (≈ 99.1 µM). Besides, the IC50 with Plasmodium falciparum was found to be 2.03 µM.

For the molecule `CC(C)(C)c1ccc(Cn2nc(C(C)(C)C)cc2C(=O)Nc2nc(CN)cs2)cc1`, in data set [1], the solubility kinetic was 10 µg/mL (≈ 23.5 µM). This molecule also showed an IC50 in the data set on Plasmodium falciparum of 2.58 µM.

`CC(C)(C)c1cc(C(=O)Nc2nc(CN)cs2)n(Cc2ccc(F)cc2F)n1` came in with an IC50 with Plasmodium falciparum of 4.7 µM.

Take `CC(C)(C)c1cc(C(=O)Nc2nc(CN)cs2)n(Cc2ccccc2Cl)n1`: the solubility kinetic in data set [1] turned out to be 80 µg/mL (≈ 198 µM). In the data set with Plasmodium falciparum, this molecule showed an IC50 of 1.84 µM.

Take `N#Cc1ccc(C(=O)Nc2nc(CN)cs2)cc1`: the solubility kinetic in data set [1] amounted to 20 µg/mL (≈ 77.4 µM). Moreover, the IC50 in the data set with Plasmodium falciparum was 146 µM.

For `C[C@H]1[C@H](OC(=O)CCC(=O)O)O[C@@H]2O[C@@]3(C)CC[C@H]4[C@H](C)CC[C@@H]1[C@@]24OO3` [ARTESUNATE], the IC50 with Plasmodium falciparum amounted to 0.0052 µM.

As for `NCc1csc(NC(=O)c2ccc(OC(F)(F)F)cc2)n1`, the solubility kinetic in data set [1] was 40 µg/mL (≈ 126 µM). The same molecule showed an IC50 in the data set with Plasmodium falciparum of 43.9 µM.

In turn, `CC(C)(C)c1cc(C(=O)Nc2ccc(CN)c3ccccc23)n(Cc2ccccc2)n1` yielded an IC50 with Plasmodium falciparum of 7.59 µM.

On to `NCc1csc(NC(=O)c2cscn2)n1`, for which the solubility kinetic in data set [1] worked out at 80 µg/mL (≈ 333 µM). In the data set with Plasmodium falciparum, this molecule yielded an IC50 of 149 µM.

Turning to `Cc1cc(C(=O)Nc2nc(CN)cs2)n(Cc2ccccc2)n1`, the solubility kinetic in data set [1] came out at 160 µg/mL (≈ 489 µM). Also, the concentration for half-maximal inhibition (IC50) with Plasmodium falciparum came out at 19.8 µM.

Regarding `NCc1csc(NC(=O)c2cccs2)n1`, in data set [1], the solubility kinetic came out at 80 µg/mL (≈ 334 µM). Further, in the data set on Plasmodium falciparum, the half-maximal inhibitory concentration (IC50) is 91.7 µM.

Regarding `NCc1csc(NC(=O)c2cnccn2)n1`, in data set [1], the solubility kinetic was more than 200 µg/mL. Further, inhibition with Plasmodium falciparum was half-maximal at 173 µM (IC50).

As for `NCc1csc(NC(=O)c2ccnn2Cc2ccccc2)n1`, in data set [1], the solubility kinetic was more than 200 µg/mL. The molecule further displayed an IC50 in the data set with Plasmodium falciparum of 43.7 µM.

`CC(C)(C)c1cc(C(=O)Nc2nc(CN)cs2)n(Cc2ccc(Br)cc2)n1`: the solubility kinetic in data set [1] is more than 200 µg/mL. For the same molecule, the midpoint of inhibition in the data set with Plasmodium falciparum, the IC50, lay at 12.8 µM.

Regarding `CC(C)(C)c1cc(C(=O)Nc2nc(CN)cs2)n(-c2ccccc2)n1`, the solubility kinetic in data set [1] was found to be 160 µg/mL (≈ 450 µM). Moreover, the IC50 in the data set with Plasmodium falciparum was 67.5 µM.

As for `NCc1csc(NC(=O)c2ccc(C(F)(F)F)cc2)n1`, the solubility kinetic in data set [1] was 40 µg/mL (≈ 133 µM). The molecule further yielded an IC50 in the data set with Plasmodium falciparum of 40.2 µM.

Take `CC(C)(C)c1cc(C(=O)Nc2ncc(CN)s2)n(Cc2ccccc2)n1`: the solubility kinetic in data set [1] came out at 80 µg/mL (≈ 217 µM). The molecule also showed an IC50 in the data set on Plasmodium falciparum of 9.09 µM.

Consider `NCc1csc(NC(=O)c2ccc(F)cc2)n1`, for which the solubility kinetic in data set [1] turned out to be 80 µg/mL (≈ 318 µM). The molecule also gave an IC50 in the data set on Plasmodium falciparum of 123 µM.

Consider `CC(C)(C)c1cc(C(=O)Nc2cccc(CN)n2)n(Cc2ccccc2)n1`, for which the solubility kinetic in data set [1] was 40 µg/mL (≈ 110 µM). In the data set on Plasmodium falciparum, this molecule returned an IC50 of 0.125 µM.

In the case of `CC(C)(C)c1cc(C(=O)Nc2nc(CN)cs2)n(Cc2ccc(Cl)cc2)n1`, in data set [1], the solubility kinetic is more than 200 µg/mL. Further, the IC50 in the data set with Plasmodium falciparum stood at 12.1 µM.

Usually IC50 stands for the concentration that inhibits the measured activity by half. Low values mean greater potency in that assay, high ones weaker potency in that assay.

The values are drawn from ChEMBL document CHEMBL3351661, “Structure-activity relationship studies of antiplasmodial aminomethylthiazoles” (Bioorg Med Chem Lett, 2014).
